Laboratory results from patent US20200247800A1, “SUBSTITUTED BICYCLIC HETEROCYCLIC COMPOUNDS AS NADPH OXIDASE INHIBITORS” (Glenmark Pharmaceuticals S.A., priority 2017, published 2020).
Structures can show the parent of a compound that is named as a salt.

Biological target: T1, human NOX4 (Homo sapiens, UniProt Q9NPH5)
T1 construct: expressed in transfected cells; membrane fraction used
T1 sequence (Q9NPH5 1-578): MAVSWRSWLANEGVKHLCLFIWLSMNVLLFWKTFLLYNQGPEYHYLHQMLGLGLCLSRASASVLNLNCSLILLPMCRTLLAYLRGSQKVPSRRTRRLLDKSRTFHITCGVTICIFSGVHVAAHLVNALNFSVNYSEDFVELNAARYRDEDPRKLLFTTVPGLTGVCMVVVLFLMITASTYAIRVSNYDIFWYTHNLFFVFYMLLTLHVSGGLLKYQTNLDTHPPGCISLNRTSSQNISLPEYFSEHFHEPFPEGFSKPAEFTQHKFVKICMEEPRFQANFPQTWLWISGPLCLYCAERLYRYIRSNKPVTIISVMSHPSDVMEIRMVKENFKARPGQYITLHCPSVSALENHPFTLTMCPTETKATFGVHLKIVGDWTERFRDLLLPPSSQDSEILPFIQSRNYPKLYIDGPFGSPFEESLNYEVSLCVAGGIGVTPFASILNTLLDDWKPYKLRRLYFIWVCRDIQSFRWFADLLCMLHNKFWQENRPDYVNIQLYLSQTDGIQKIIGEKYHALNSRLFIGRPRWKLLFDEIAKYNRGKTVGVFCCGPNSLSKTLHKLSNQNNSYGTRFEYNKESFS
T1 sequence (P13498 1-195 partner): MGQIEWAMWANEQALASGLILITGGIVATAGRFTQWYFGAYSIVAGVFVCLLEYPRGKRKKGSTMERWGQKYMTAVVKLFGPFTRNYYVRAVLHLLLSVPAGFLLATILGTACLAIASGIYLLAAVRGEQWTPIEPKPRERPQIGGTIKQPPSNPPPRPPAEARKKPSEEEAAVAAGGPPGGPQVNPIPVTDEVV
Assay: Cell free membrane based in vitro NOX4 assay: H2O2 production by membranes expressing human NOX4, measured with Amplex Red
Type: biochemical
Conditions: for inhibition at 1 µM: read-out: Percentage inhibition at 1.0 μM; for inhibition at 10 µM: read-out: Percentage inhibition at 10.0 μM; for IC50: class symbols
Summary of the method: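 IC50 came from concentration-response curves fitted as % of the inhibitor-free maximum. H2O2 formation was monitored for 10 min via Amplex Red/HRP fluorescence (544/590 nm) after NADPH start. Membranes from a stable hNOX4/HEK line had 20 min exposure to inhibitor beforehand at pH 7.4.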

Row | inhibition at 1 µM (1.0 μM compound) [%] | inhibition at 10 µM (10.0 μM compound) [%] | IC50 [nM] | Percentage inhibition at 1.0 μM (1.0 μM compound, dihydrochloride, 1 µM) [%] | Percentage inhibition at 10.0 μM (10.0 μM compound, dihydrochloride, 10 µM) [%] | Compound
1 | 100 | 100 | > 150 | – | – | COc1ccc(Cl)c(-c2[nH]c3c(c(C(F)(F)F)nn3C)c(=O)c2O)c1 [Example 49, 6-(2-Chloro-5-methoxyphenyl)-5-hydroxy-1-methyl-3-(trifluoromethyl)-1,7-dihydro-4H-pyrazolo[3,4-b]pyridin-4-one]
2 | 99.6 | 98.7 | < 50 | – | – | Cc1nn(C)c2[nH]c(-c3c(F)cccc3F)c(O)c(=O)c12 [Example 13, 6-(2,6-Difluorophenyl)-5-hydroxy-1,3-dimethyl-1,7-dihydro-4H-pyrazolo[3,4-b]pyridin-4-one]
3 | 100 | 100 | 50 to 100 | – | – | Cn1ncc2c(=O)c(O)c(-c3c(F)cccc3Cl)[nH]c21 [Example 7, 6-(2-Chloro-6-fluorophenyl)-5-hydroxy-1-methyl-1,7-dihydro-4H-pyrazolo[3,4-b]pyridin-4-one]
4 | 83.8 | 89.7 | 100 to 150 | – | – | O=c1c(O)c(-c2c(F)cccc2F)[nH]c2c1c(CO)nn2CCC1CCOCC1 [Example 217, 6-(2,6-difluorophenyl)-5-hydroxy-3-(hydroxymethyl)-1-(2-(tetrahydro-2H-pyran-4-yl)ethyl)-1H-pyrazolo[3,4-b]pyridin-4(7H)-one]
5 | 86.8 | 93.5 | 100 to 150 | – | – | Cn1nc(CN2CCOCC2)c2c(=O)c(O)c(-c3ccccc3Cl)[nH]c21 [Example 199, 6-(2-Chlorophenyl)-5-hydroxy-1-methyl-3-(morpholinomethyl)-1H-pyrazolo[3,4-b]pyridin-4(7H)-one]
6 | 79.1 | 74.7 | > 150 | – | – | Cc1nn(CCN2CCCCC2)c2[nH]c(-c3ccccc3Cl)c(O)c(=O)c12 [Example 149, 6-(2-Chlorophenyl)-5-hydroxy-3-methyl-1-(2-(piperidin-1-yl)ethyl)-1H-pyrazolo[3,4-b]pyridin-4(7H)-one]
7 | 84.3 | 80.3 | 50 to 100 | – | – | CCn1nc(C)c2c(=O)c(O)c(-c3c(F)cccc3F)[nH]c21 [Example 68, 6-(2,6-Difluorophenyl)-1-ethyl-5-hydroxy-3-methyl-1H-pyrazolo[3,4-b]pyridin-4(7H)-one]
8 | 92.4 | 90.2 | < 50 | – | – | Cc1nn(C2CCC2)c2[nH]c(-c3c(F)cccc3F)c(O)c(=O)c12 [Example 131, 1-Cyclobutyl-6-(2,6-difluorophenyl)-5-hydroxy-3-methyl-1H-pyrazolo[3,4-b]pyridin-4(7H)-one]
9 | 74.8 | 88.7 | > 150 | – | – | Cn1nc(C(F)(F)F)c2c(=O)c(O)c(-c3cc(CNC(=O)C(C)(C)C)ccc3Cl)[nH]c21 [Example 132, N-(4-Chloro-3-(5-hydroxy-1-methyl-4-oxo-3-(trifluoromethyl)-4,7-dihydro-1H-pyrazolo[3,4-b]pyridin-6-yl)benzyl)pivalamide]

Continued, compound first:

Row | Compound | inhibition at 1 µM (1.0 μM compound) [%] | inhibition at 10 µM (10.0 μM compound) [%] | IC50 [nM] | Percentage inhibition at 1.0 μM (1.0 μM compound, dihydrochloride, 1 µM) [%] | Percentage inhibition at 10.0 μM (10.0 μM compound, dihydrochloride, 10 µM) [%]
10 | COc1ccc(-c2[nH]c3c(c(C)nn3CC(F)(F)F)c(=O)c2O)c(F)c1 [Example 70, 6-(2-Fluoro-4-methoxyphenyl)-5-hydroxy-3-methyl-1-(2,2,2-trifluoroethyl)-1H-pyrazolo[3,4-b]pyridin-4(7H)-one] | 97.5 | 98.4 | > 150 | – | –
11 | Cn1nc(Cc2ccccc2)c2c(=O)c(O)c(-c3c(F)cccc3F)[nH]c21 [Example 115, 3-Benzyl-6-(2,6-difluorophenyl)-5-hydroxy-1-methyl-1H-pyrazolo[3,4-b]pyridin-4(7H)-one] | 76.7 | 80.8 | 100 to 150 | – | –
12 | COc1ccc(-n2nc(C)c3c(=O)c(O)c(-c4c(F)cccc4F)[nH]c32)cc1 [Example 29, 6-(2,6-Difluorophenyl)-5-hydroxy-1-(4-methoxyphenyl)-3-methyl-1,7-dihydro-4H-pyrazolo[3,4-b]pyridin-4-one] | 89.4 | 95.6 | 100 to 150 | – | –
13 | Cn1nc(C2CCOCC2)c2c(=O)c(O)c(-c3ccccc3Cl)[nH]c21 [Example 193, 6-(2-Chlorophenyl)-5-hydroxy-1-methyl-3-(tetrahydro-2H-pyran-4-yl)-1H-pyrazolo[3,4-b]pyridin-4(7H)-one] | 84.7 | 75.4 | < 50 | – | –
14 | CCc1nn(CCC2CCOCC2)c2[nH]c(-c3cccc(C(F)(F)F)c3F)c(O)c(=O)c12 [Example 213, 3-Ethyl-6-(2-fluoro-3-(trifluoromethyl)phenyl)-5-hydroxy-1-(2-(tetrahydro-2H-pyran-4-yl)ethyl)-1H-pyrazolo[3,4-b]pyridin-4(7H)-one] | 86.9 | 75.6 | > 150 | – | –
15 | CCn1nc(C)c2c(=O)c(O)c(-c3ccc(OCCOC)cc3F)[nH]c21 [Example 120, 1-Ethyl-6-[2-fluoro-4-(2-methoxyethoxy)phenyl]-5-hydroxy-3-methyl-1,7-dihydro-4H-pyrazolo[3,4-b]pyridin-4-one] | 64.8 | – | > 150 | – | –
16 | COc1ccc(-c2[nH]c3c(c(C)nn3Cc3ccccc3)c(=O)c2O)c(F)c1 [Example 77, 1-Benzyl-6-(2-fluoro-4-methoxyphenyl)-5-hydroxy-3-methyl-1H-pyrazolo[3,4-b]pyridin-4(7H)-one] | 88.9 | 72.1 | 100 to 150 | – | –
17 | Cc1nn(-c2ccccn2)c2[nH]c(-c3c(F)cccc3F)c(O)c(=O)c12 [Example 36, 6-(2,6-Difluorophenyl)-5-hydroxy-3-methyl-1-(pyridin-2-yl)-1,7-dihydro-4H-pyrazolo[3,4-b]pyridin-4-one] | 84.2 | 100 | > 150 | – | –
18 | O=c1c(O)c(-c2c(F)cccc2F)[nH]c2c1cnn2-c1ccc(F)cc1 [Example 9, 6-(2,6-Difluorophenyl)-1-(4-fluorophenyl)-5-hydroxy-1,7-dihydro-4H-pyrazolo[3,4-b]pyridin-4-one] | 81.7 | 97.4 | > 150 | – | –
19 | CC(C)c1c2c(=O)c(O)c(-c3ccccc3Cl)[nH]c2nn1C [Example 75, 6-(2-Chlorophenyl)-5-hydroxy-3-isopropyl-2-methyl-2H-pyrazolo[3,4-b]pyridin-4(7H)-one] | 1.59 | 12.5 | – | – | –
20 | CC(C)Cn1nc(C(F)(F)F)c2c(=O)c(O)c(-c3c(F)cccc3F)[nH]c21 [Example 111, 6-(2,6-Difluorophenyl)-5-hydroxy-1-isobutyl-3-(trifluoromethyl)-1H-pyrazolo[3,4-b]pyridin-4(7H)-one] | 56.4 | 81.7 | > 150 | – | –
21 | Cc1nn(C2CC2)c2[nH]c(-c3c(F)cccc3F)c(O)c(=O)c12 [Example 87, 1-Cyclopropyl-6-(2,6-difluorophenyl)-5-hydroxy-3-methyl-1H-pyrazolo[3,4-b]pyridin-4(7H)-one] | 78.2 | 88.5 | 100 to 150 | – | –
22 | Cc1nn(C2CC2)c2[nH]c(-c3cc(CNC(=O)C(C)(C)C)ccc3Cl)c(O)c(=O)c12 [Example 133, N-(4-Chloro-3-(1-cyclopropyl-5-hydroxy-3-methyl-4-oxo-4,7-dihydro-1H-pyrazolo[3,4-b]pyridin-6-yl)benzyl)pivalamide] | 77.3 | 88.8 | > 150 | – | –
23 | CCn1nc(C)c2c(=O)c(O)c(-c3ccc(F)c(C(F)(F)F)c3F)[nH]c21 [Example 116, 6-(2,4-Difluoro-3-(trifluoromethyl)phenyl)-1-ethyl-5-hydroxy-3-methyl-1H-pyrazolo[3,4-b]pyridin-4(7H)-one] | 78.6 | 73 | > 150 | – | –
24 | Cc1nn(CCN2CCOCC2)c2[nH]c(-c3cccc(C(F)(F)F)c3F)c(O)c(=O)c12 [Example 239, 6-(2-Fluoro-3-(trifluoromethyl)phenyl)-5-hydroxy-3-methyl-1-(2-morpholinoethyl)-1H-pyrazolo[3,4-b]pyridin-4(7H)-one dihydrochloride] | – | – | – | 84.59 | 77.77
25 | Cn1nc(C(F)(F)F)c2c(=O)c(O)c(-c3ccc(O)cc3)[nH]c21 [Example 225, 5-hydroxy-6-(4-hydroxyphenyl)-1-methyl-3-(trifluoromethyl)-1,7-dihydro-4H-pyrazolo[3,4-b]pyridin-4-one] | 80.1 | 90.7 | > 150 | – | –
